Calls of active or inactive are those of the source.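 How the source made its calls: active means mean half-maximal activation concentration below 100 µM; inactive means the rest.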

Alkaline phosphatase, tissue-nonspecific isozyme (Homo sapiens), sequence (P05186 whole entry, looked up): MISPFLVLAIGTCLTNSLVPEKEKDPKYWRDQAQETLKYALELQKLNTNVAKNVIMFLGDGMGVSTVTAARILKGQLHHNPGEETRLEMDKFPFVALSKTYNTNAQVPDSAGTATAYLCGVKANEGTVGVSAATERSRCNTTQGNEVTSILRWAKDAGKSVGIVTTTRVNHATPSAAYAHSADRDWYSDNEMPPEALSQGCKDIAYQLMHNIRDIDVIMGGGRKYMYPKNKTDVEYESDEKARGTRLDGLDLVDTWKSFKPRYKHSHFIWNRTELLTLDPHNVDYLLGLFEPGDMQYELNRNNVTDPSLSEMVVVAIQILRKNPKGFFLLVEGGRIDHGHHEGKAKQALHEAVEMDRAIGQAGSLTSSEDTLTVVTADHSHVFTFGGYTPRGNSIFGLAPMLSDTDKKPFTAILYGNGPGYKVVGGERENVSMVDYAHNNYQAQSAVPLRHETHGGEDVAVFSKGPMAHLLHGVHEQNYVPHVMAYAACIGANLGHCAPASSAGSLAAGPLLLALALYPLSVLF

This assay concerns the target Alkaline phosphatase, tissue-nonspecific isozyme (Homo sapiens) (UniProt P05186). Description: effect of analogs on TNAP activity, SAR follow-up, selectivity assay for human IAP activator project, biochemical, human TNAP (AID 493112). As to conditions: purified TNAP, CDP-Star luminescence, 30 min.
Turning to `COc1ccc(-c2csc(Nc3cccc4ccccc34)n2)cc1F`, the IC50 (inhibition of TNAP activity) is > 100 µM (inactive).

`Cc1cc(C(=O)NN=Cc2cccc([N+](=O)[O-])c2O)n[nH]1`: the IC50 (inhibition of TNAP activity) is > 100 µM (inactive).

Regarding `COc1cccc(C=NNC(=O)C(=O)NN=Cc2cccc(OC)c2O)c1O`, the IC50 (inhibition of TNAP activity) was > 100 µM (inactive).

Turning to `Cn1cccc1-c1cc(C(=O)NN=Cc2cc(Br)ccc2O)[nH]n1`, the IC50 (inhibition of TNAP activity) was 9.38 µM.

`C/C(=N\NC(=O)c1cc(C)[nH]n1)c1ccc2ccccc2c1O`: the IC50 (inhibition of TNAP activity) was > 100 µM (inactive).

In the case of `O=C(NC(=S)NNC(=O)c1ccccc1O)c1ccc(F)cc1`, the IC50 (inhibition of TNAP activity) was 11.5 µM.

As to `O=C(N/N=C/c1ccccc1C(=O)O)C(=O)N/N=C/c1ccccc1C(=O)O`, the IC50 (inhibition of TNAP activity) is 36.2 µM.

Take `Cc1cc(C(=O)N/N=C\c2cc(C(C)(C)C)ccc2O)n[nH]1`: the IC50 (inhibition of TNAP activity) was 7.22 µM.

For `CC1C(=O)NN=C1C(=O)NN=Cc1ccc(O)cc1O` (stereo not given), the IC50 (inhibition of TNAP activity) was > 100 µM (inactive).

Take `Cc1cc(C(=O)N/N=C/c2cc(Br)ccc2O)n[nH]1`: the IC50 (inhibition of TNAP activity) was 8.35 µM.

Regarding `COc1cccc(C=NNC(=O)C(=O)NN=Cc2cccc(OC)c2OC)c1OC`, the IC50 (inhibition of TNAP activity) is 36.1 µM.

As to `O=C(N/N=C/c1ccccc1O)c1cc(C2CC2)[nH]n1`, the IC50 (inhibition of TNAP activity) is 7.51 µM.

On to `COc1cc(OC)cc(C(=O)NNC(=O)c2nn(C)c(=O)c3ccccc23)c1`, for which the IC50 (inhibition of TNAP activity) was 10.9 µM.

For the compound `COc1cccc(C=NNC(=O)c2[nH]nc3c2CCc2ccccc2-3)c1O`, the IC50 (inhibition of TNAP activity) was 10.9 µM.

Consider `O=C(N/N=C/c1cc(Br)ccc1O)c1cc(C2CC2)[nH]n1`, for which the IC50 (inhibition of TNAP activity) is 8.03 µM.

Turning to `Cc1cc(C(=O)NN=Cc2cc(Cl)cc([N+](=O)[O-])c2O)n[nH]1`, the IC50 (inhibition of TNAP activity) was > 100 µM (inactive).

With `CC(=O)Nc1ccc(/C=N/NC(=O)C(=O)N/N=C/c2ccc(NC(C)=O)cc2)cc1`, the IC50 (inhibition of TNAP activity) was > 100 µM (inactive).

Consider `O=C(N/N=C/c1c(O)ccc2ccccc12)c1cc(-c2cccs2)[nH]n1`, for which the IC50 (inhibition of TNAP activity) was > 100 µM (inactive).

`CCOc1cccc(C=NNC(=O)c2cc(C3CC3)[nH]n2)c1O`: the IC50 (inhibition of TNAP activity) is 12.2 µM.

On to `COc1ccc(/C=N/NC(=O)C(=O)N/N=C/c2ccc(OC)c(OC)c2)cc1OC`, for which the IC50 (inhibition of TNAP activity) is > 100 µM (inactive).

For `COc1cccc(C=NNC(=O)C2=NNC(=O)C2C)c1O` (stereo not given), the IC50 (inhibition of TNAP activity) was 12.1 µM.

Turning to `CC(C)Oc1ccccc1/C=N/NC(=O)C(=O)N/N=C/c1ccccc1OC(C)C`, the IC50 (inhibition of TNAP activity) was 54.3 µM.

As for `OC(c1nc2ccc(F)cc2[nH]1)C(O)c1nc2ccc(F)cc2[nH]1` (stereo not given), the IC50 (inhibition of TNAP activity) is 7.21 µM.

Consider `O=C(NN=Cc1c(O)ccc2ccccc12)c1[nH]ncc1Br`, for which the IC50 (inhibition of TNAP activity) was > 100 µM (inactive).

For the compound `COc1cccc(C=NNC(=O)c2cc(-c3cccn3C)n[nH]2)c1O`, the IC50 (inhibition of TNAP activity) was 9.52 µM.

Consider `N#CCOc1ccccc1/C=N/NC(=O)C(=O)N/N=C/c1ccccc1OCC#N`, for which the IC50 (inhibition of TNAP activity) was > 100 µM (inactive).

As for `COc1cc(/C=N/NC(=O)C(=O)N/N=C/c2cc(OC)c(OC)c(OC)c2)cc(OC)c1OC`, the IC50 (inhibition of TNAP activity) was > 100 µM (inactive).

Turning to `O=C(NNC(=S)NC(=O)c1ccccc1[N+](=O)[O-])c1ccccc1O`, the IC50 (inhibition of TNAP activity) was 15.3 µM.

Turning to `COc1ccc(-c2cc(C(=O)NN=Cc3c(O)ccc4ccccc34)[nH]n2)cc1`, the IC50 (inhibition of TNAP activity) was > 100 µM (inactive).

For `CCOc1cc(/C=N/NC(=O)C(=O)N/N=C/c2ccc(O)c(OCC)c2)ccc1O`, the IC50 (inhibition of TNAP activity) is > 100 µM (inactive).

As to `O=C(N/N=C/c1ccccc1O)c1n[nH]c2c1CCC2`, the IC50 (inhibition of TNAP activity) was 4.74 µM.

With `O=C(NN=Cc1ccccc1)C(=O)NN=Cc1ccccc1`, the IC50 (inhibition of TNAP activity) was 24.5 µM.

With `O=C(N/N=C/c1ccc2c(c1)OCO2)C(=O)N/N=C/c1ccc2c(c1)OCO2`, the IC50 (inhibition of TNAP activity) is > 100 µM (inactive).

As to `CCN(CC)c1ccc(/C=N/NC(=O)C(=O)N/N=C/c2ccc(N(CC)CC)cc2O)c(O)c1`, the IC50 (inhibition of TNAP activity) was > 100 µM (inactive).

As for `O=C(N/N=C\c1ccc2c(c1)OCO2)C(=O)N/N=C/c1ccc2c(c1)OCO2`, the IC50 (inhibition of TNAP activity) was > 100 µM (inactive).

Regarding `COc1cc(/C=N\NC(=O)C(=O)N/N=C/c2cc(OC)c(O)c(OC)c2)cc(OC)c1O`, the IC50 (inhibition of TNAP activity) is > 100 µM (inactive).

As to `COc1ccc(OC)c(/C=N/NC(=O)C(=O)N/N=C/c2cc(OC)ccc2OC)c1`, the IC50 (inhibition of TNAP activity) is 69.5 µM.

For `Cc1ccc(O)c(C=NNC(=O)c2[nH]ncc2Br)c1`, the IC50 (inhibition of TNAP activity) is 15.6 µM.

For the compound `COc1cc(/C=N/NC(=O)C(=O)N/N=C/c2ccc(O)c(OC)c2)ccc1O`, the IC50 (inhibition of TNAP activity) was > 100 µM (inactive).

Take `C/C(=N\NC(=O)c1[nH]nc2c1CCc1ccccc1-2)c1ccccc1O`: the IC50 (inhibition of TNAP activity) was 8.78 µM.

For the compound `COC(=O)c1ccc(/C=N/NC(=O)C(=O)N/N=C/c2ccc(C(=O)OC)cc2)cc1`, the IC50 (inhibition of TNAP activity) was > 100 µM (inactive).

As to `CC(=NNC(=O)C(=O)NN=C(C)c1cccc(O)c1)c1cccc(O)c1`, the IC50 (inhibition of TNAP activity) is > 100 µM (inactive).

`O=C(N/N=C/c1ccc(O)cc1)C(=O)N/N=C/c1ccc(O)cc1`: the IC50 (inhibition of TNAP activity) is > 100 µM (inactive).

With `O=C(N/N=C/c1c(O)ccc2ccccc12)C(=O)N/N=C/c1c(O)ccc2ccccc12`, the IC50 (inhibition of TNAP activity) was > 100 µM (inactive).

As for `CC(C)C(=O)NC(=S)Nc1ccccc1C(=O)Nc1ccccc1`, the IC50 (inhibition of TNAP activity) was 10.4 µM.

Regarding `O=C(N/N=C\c1cccc(O)c1)C(=O)N/N=C/c1cccc(O)c1`, the IC50 (inhibition of TNAP activity) was > 100 µM (inactive).

Regarding `CCOc1cccc(C=NNC(=O)c2cc(-c3cccn3C)n[nH]2)c1O`, the IC50 (inhibition of TNAP activity) was 10.2 µM.

For the compound `O=C(CCN1C(=O)/C(=C/c2ccccc2Cl)SC1=S)NNC(=O)c1ccccc1O`, the IC50 (inhibition of TNAP activity) was > 100 µM (inactive).

For the compound `CC(=O)Nc1cccc(C(=O)NNC(=O)c2n[nH]c(=O)c3ccccc23)c1`, the IC50 (inhibition of TNAP activity) was 10.3 µM.

As to `Cc1ccc(-c2cc(C(=O)NN=Cc3ccccc3O)n[nH]2)o1`, the IC50 (inhibition of TNAP activity) was 6.16 µM.

In the case of `CCCCOc1ccc(/C=N/NC(=O)C(=O)N/N=C/c2ccc(OCCCC)cc2)cc1`, the IC50 (inhibition of TNAP activity) was > 100 µM (inactive).

In the case of `CN(C)c1ccc(/C=N/NC(=O)C(=O)N/N=C/c2ccc(N(C)C)cc2)cc1`, the IC50 (inhibition of TNAP activity) is > 100 µM (inactive).

Consider `O=C(NN=Cc1ccc(O)cc1O)C(=O)NN=Cc1ccc(O)cc1O`, for which the IC50 (inhibition of TNAP activity) is > 100 µM (inactive).

Take `COc1cc(OC)c(OC)cc1/C=N/NC(=O)C(=O)N/N=C/c1cc(OC)c(OC)cc1OC`: the IC50 (inhibition of TNAP activity) was > 100 µM (inactive).

For the compound `O=C(N/N=C/c1cc(Br)ccc1O)C(=O)N/N=C/c1cc(Br)ccc1O`, the IC50 (inhibition of TNAP activity) is > 100 µM (inactive).

For the origin of these results see PubChem BioAssay AID493112 (Sanford-Burnham Center for Chemical Genomics, 2011).
